From patent US10738028B2, “Spiro three-membered ring, spiro five-membered ring peptide deformylase inhibitor and use thereof in antibacteria and anti-tumor” (priority 2016, dated 2020)

Tests used:
Type in all cases: cell-based
[1] = tested on: HCT-116 colorectal cancer cell line; experiment: CCK-8 proliferation inhibition; details: Homo sapiens, HCT-116, 72 h, concentration of 30 μM; 72 hours; CCK-8; read-out: HCT116 inhibition rate/%
Outline: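 Viability read-out: 1:10 diluted CCK-8 after 72 h compound exposure at 37 °C, 5% CO2. Cells (2000/well, McCoy's 5A plus 10% newborn bovine serum) pre-cultured overnight; vehicle control 1‰ DMSO.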

[2] = tested on: methicillin-resistant Staphylococcus aureus (MRSA); experiment: MIC, two-fold agar dilution (CLSI), clinical isolates; details: for Anti-bacterial activity (MIC), strain MRSA 15-1: clinical isolate MRSA 15-1; for Anti-bacterial activity (MIC), strain MRSA 15-2: clinical isolate MRSA 15-2; for Anti-bacterial activity (MIC), strain MRSA 15-3: clinical isolate MRSA 15-3; for Anti-bacterial activity (MIC), strain MRSA 15-4: clinical isolate MRSA 15-4
Source text: (§1) 1. The invention adopts the two-fold agar dilution method recommended by the operating procedure of antimicrobial susceptibility testing set by American Clinical and Laboratory Standards Institute (CLSI) to determine the Minimum Inhibitory Concentration (MIC) of the test samples against the tested strains.

[3] = tested on: methicillin-sensitive Staphylococcus aureus (MSSA); experiment: as above; details: for Anti-bacterial activity (MIC), strain MSSA 15-3: clinical isolate MSSA 15-3; for Anti-bacterial activity (MIC), strain MSSA 15-4: clinical isolate MSSA 15-4; for Anti-bacterial activity (MIC), strain MSSA 15-5: clinical isolate MSSA 15-5; for Anti-bacterial activity (MIC), strain MSSA 15-6: clinical isolate MSSA 15-6
Source text: as §1

[4] = tested on: methicillin-sensitive Staphylococcus epidermidis (MSSE); experiment: as above; details: for Anti-bacterial activity (MIC), strain MSSE 15-3: clinical isolate MSSE 15-3; for Anti-bacterial activity (MIC), strain MSSE 15-4: clinical isolate MSSE 15-4; for Anti-bacterial activity (MIC), strain MSSE 15-5: clinical isolate MSSE 15-5; for Anti-bacterial activity (MIC), strain MSSE 15-6: clinical isolate MSSE 15-6
Source text: as §1

[5] = tested on: Enterococcus faecium (EFM); experiment: as above; details: for Anti-bacterial activity (MIC), strain EFM 15-1: clinical isolate EFM 15-1; for Anti-bacterial activity (MIC), strain EFM 15-2: clinical isolate EFM 15-2; for Anti-bacterial activity (MIC), strain EFM 15-3: clinical isolate EFM 15-3; for Anti-bacterial activity (MIC), strain EFM 15-4: clinical isolate EFM 15-4; for Anti-bacterial activity (MIC), strain EFM 15-5: clinical isolate EFM 15-5; for Anti-bacterial activity (MIC), strain EFM 15-6: clinical isolate EFM 15-6
Source text: as §1

[6] = tested on: Streptococcus pneoumoniae (SPN); experiment: as above; details: for Anti-bacterial activity (MIC), strain SPN 16-2: clinical isolate SPN 16-2; for Anti-bacterial activity (MIC), strain SPN 16-4: clinical isolate SPN 16-4
Source text: as §1

[7] = tested on: Moraxella catarrhalis (BCA); experiment: as above; details: for Anti-bacterial activity (MIC), strain BCA 14-1: clinical isolate BCA 14-1; for Anti-bacterial activity (MIC), strain BCA 14-4: clinical isolate BCA 14-4; for Anti-bacterial activity (MIC), strain BCA 14-5: clinical isolate BCA 14-5; for Anti-bacterial activity (MIC), strain BCA 14-6: clinical isolate BCA 14-6; for Anti-bacterial activity (MIC), strain BCA 14-7: clinical isolate BCA 14-7; for Anti-bacterial activity (MIC), strain BCA 14-8: clinical isolate BCA 14-8; for Anti-bacterial activity (MIC), strain BCA 14-10: clinical isolate BCA 14-10
Source text: as §1

[8] = tested on: Enterococcus faecalis (EFA); experiment: as above; details: for Anti-bacterial activity (MIC), strain EFA 15-1: clinical isolate EFA 15-1; for Anti-bacterial activity (MIC), strain EFA 15-2: clinical isolate EFA 15-2; for Anti-bacterial activity (MIC), strain EFA 15-3: clinical isolate EFA 15-3; for Anti-bacterial activity (MIC), strain EFA 15-4: clinical isolate EFA 15-4; for Anti-bacterial activity (MIC), strain EFA 15-5: clinical isolate EFA 15-5; for Anti-bacterial activity (MIC), strain EFA 15-6: clinical isolate EFA 15-6; for Anti-bacterial activity (MIC), strain EFA 15-9: clinical isolate EFA 15-9
Source text: as §1

[9] = tested on: methicillin-resistant Staphylococcus epidermidis (MRSE); experiment: as above; details: for Anti-bacterial activity (MIC), strain MRSE 15-1: clinical isolate MRSE 15-1; for Anti-bacterial activity (MIC), strain MRSE 15-2: clinical isolate MRSE 15-2; for Anti-bacterial activity (MIC), strain MRSE 15-3: clinical isolate MRSE 15-3; for Anti-bacterial activity (MIC), strain MRSE 15-7: clinical isolate MRSE 15-7
Source text: as §1

[10] = tested on: Escherichia coli (including ESBLs, non-ESBLs); experiment: as above; details: for Anti-bacterial activity (MIC), strain ECO+ 15-1: clinical isolate ECO+ 15-1; for Anti-bacterial activity (MIC), strain ECO+ 15-2: clinical isolate ECO+ 15-2; for Anti-bacterial activity (MIC), strain ECO+ 15-3: clinical isolate ECO+ 15-3; for Anti-bacterial activity (MIC), strain ECO+ 15-4: clinical isolate ECO+ 15-4; for Anti-bacterial activity (MIC), strain ECO− 15-1: clinical isolate ECO− 15-1; for Anti-bacterial activity (MIC), strain ECO− 15-2: clinical isolate ECO− 15-2; for Anti-bacterial activity (MIC), strain ECO− 15-3: clinical isolate ECO− 15-3; for Anti-bacterial activity (MIC), strain ECO− 15-4: clinical isolate ECO− 15-4
Source text: as §1

CCCC[C@H](CC(=O)NO)C(=O)N1CC2(CC2)C[C@H]1C(=O)Nc1ccncn1 [Example 45]
inhibition at 30 µM [1]: 25% | Anti-bacterial activity (MIC), strain MRSA 15-1 [2]: 0.5 mg/L | Anti-bacterial activity (MIC), strain MRSA 15-2 [2]: 1 mg/L | Anti-bacterial activity (MIC), strain MRSA 15-3 [2]: 1 mg/L | Anti-bacterial activity (MIC), strain MRSA 15-4 [2]: 1 mg/L | Anti-bacterial activity (MIC), strain MSSA 15-3 [3]: 0.5 mg/L | Anti-bacterial activity (MIC), strain MSSA 15-4 [3]: 1 mg/L | Anti-bacterial activity (MIC), strain MSSA 15-5 [3]: 1 mg/L | Anti-bacterial activity (MIC), strain MSSA 15-6 [3]: > 32 mg/L | Anti-bacterial activity (MIC), strain MSSE 15-3 [4]: 1 mg/L | Anti-bacterial activity (MIC), strain MSSE 15-4 [4]: 1 mg/L | Anti-bacterial activity (MIC), strain MSSE 15-5 [4]: 1 mg/L | Anti-bacterial activity (MIC), strain MSSE 15-6 [4]: 1 mg/L | Anti-bacterial activity (MIC), strain EFM 15-1 [5]: > 32 mg/L | Anti-bacterial activity (MIC), strain EFM 15-2 [5]: > 32 mg/L | Anti-bacterial activity (MIC), strain EFM 15-3 [5]: > 32 mg/L | Anti-bacterial activity (MIC), strain EFM 15-4 [5]: > 32 mg/L | Anti-bacterial activity (MIC), strain EFM 15-5 [5]: 0.5 mg/L | Anti-bacterial activity (MIC), strain EFM 15-6 [5]: 0.5 mg/L | Anti-bacterial activity (MIC), strain SPN 16-2 [6]: 0.5 mg/L | Anti-bacterial activity (MIC), strain SPN 16-4 [6]: 0.5 mg/L | Anti-bacterial activity (MIC), strain BCA 14-1 [7]: 1 mg/L | Anti-bacterial activity (MIC), strain BCA 14-4 [7]: 1 mg/L | Anti-bacterial activity (MIC), strain BCA 14-5 [7]: 0.5 mg/L | Anti-bacterial activity (MIC), strain BCA 14-6 [7]: 0.5 mg/L | Anti-bacterial activity (MIC), strain BCA 14-7 [7]: 1 mg/L | Anti-bacterial activity (MIC), strain BCA 14-8 [7]: 1 mg/L | Anti-bacterial activity (MIC), strain BCA 14-10 [7]: 1 mg/L | Anti-bacterial activity (MIC), strain EFA 15-1 [8]: > 32 mg/L | Anti-bacterial activity (MIC), strain EFA 15-2 [8]: > 32 mg/L | Anti-bacterial activity (MIC), strain EFA 15-3 [8]: > 32 mg/L | Anti-bacterial activity (MIC), strain EFA 15-4 [8]: > 32 mg/L | Anti-bacterial activity (MIC), strain EFA 15-5 [8]: > 32 mg/L | Anti-bacterial activity (MIC), strain EFA 15-6 [8]: > 32 mg/L | Anti-bacterial activity (MIC), strain EFA 15-9 [8]: 16 mg/L | Anti-bacterial activity (MIC), strain MRSE 15-1 [9]: 1 mg/L | Anti-bacterial activity (MIC), strain MRSE 15-2 [9]: 1 mg/L | Anti-bacterial activity (MIC), strain MRSE 15-3 [9]: 1 mg/L | Anti-bacterial activity (MIC), strain MRSE 15-7 [9]: 1 mg/L | Anti-bacterial activity (MIC), strain ECO+ 15-1 [10]: 32 mg/L | Anti-bacterial activity (MIC), strain ECO+ 15-2 [10]: > 32 mg/L | Anti-bacterial activity (MIC), strain ECO+ 15-3 [10]: > 32 mg/L | Anti-bacterial activity (MIC), strain ECO+ 15-4 [10]: 1 mg/L | Anti-bacterial activity (MIC), strain ECO− 15-1 [10]: 32 mg/L | Anti-bacterial activity (MIC), strain ECO− 15-2 [10]: > 32 mg/L | Anti-bacterial activity (MIC), strain ECO− 15-3 [10]: > 32 mg/L | Anti-bacterial activity (MIC), strain ECO− 15-4 [10]: > 32 mg/L

CCCC[C@H](CC(=O)NO)C(=O)N1CC2(CC2)C[C@H]1C(=O)Nc1ncc(C)s1 [Example 47, (S)-5-((R)-2-(2-(hydroxyamino)-2-oxoethyl)hexanoyl)-N-(5-methylthiazol-2-yl)-5-azaspiro[2.4]heptane-6-amide]
inhibition at 30 µM [1]: 20% | Anti-bacterial activity (MIC), strain MRSA 15-1 [2]: 0.25 mg/L | Anti-bacterial activity (MIC), strain MRSA 15-2 [2]: 0.5 mg/L | Anti-bacterial activity (MIC), strain MRSA 15-3 [2]: 0.25 mg/L | Anti-bacterial activity (MIC), strain MRSA 15-4 [2]: 0.5 mg/L | Anti-bacterial activity (MIC), strain MSSA 15-3 [3]: 0.5 mg/L | Anti-bacterial activity (MIC), strain MSSA 15-4 [3]: 0.5 mg/L | Anti-bacterial activity (MIC), strain MSSA 15-5 [3]: 0.5 mg/L | Anti-bacterial activity (MIC), strain MSSA 15-6 [3]: > 32 mg/L | Anti-bacterial activity (MIC), strain MSSE 15-3 [4]: 0.5 mg/L | Anti-bacterial activity (MIC), strain MSSE 15-4 [4]: 0.5 mg/L | Anti-bacterial activity (MIC), strain MSSE 15-5 [4]: 0.5 mg/L | Anti-bacterial activity (MIC), strain MSSE 15-6 [4]: 0.5 mg/L | Anti-bacterial activity (MIC), strain EFM 15-1 [5]: > 32 mg/L | Anti-bacterial activity (MIC), strain EFM 15-2 [5]: > 32 mg/L | Anti-bacterial activity (MIC), strain EFM 15-3 [5]: > 32 mg/L | Anti-bacterial activity (MIC), strain EFM 15-4 [5]: > 32 mg/L | Anti-bacterial activity (MIC), strain EFM 15-5 [5]: 0.25 mg/L | Anti-bacterial activity (MIC), strain EFM 15-6 [5]: 1 mg/L | Anti-bacterial activity (MIC), strain SPN 16-2 [6]: 0.5 mg/L | Anti-bacterial activity (MIC), strain SPN 16-4 [6]: 0.5 mg/L | Anti-bacterial activity (MIC), strain BCA 14-1 [7]: 4 mg/L | Anti-bacterial activity (MIC), strain BCA 14-4 [7]: 4 mg/L | Anti-bacterial activity (MIC), strain BCA 14-5 [7]: 0.25 mg/L | Anti-bacterial activity (MIC), strain BCA 14-6 [7]: 2 mg/L | Anti-bacterial activity (MIC), strain BCA 14-7 [7]: 2 mg/L | Anti-bacterial activity (MIC), strain BCA 14-8 [7]: 1 mg/L | Anti-bacterial activity (MIC), strain BCA 14-10 [7]: 0.5 mg/L | Anti-bacterial activity (MIC), strain EFA 15-1 [8]: > 32 mg/L | Anti-bacterial activity (MIC), strain EFA 15-2 [8]: > 32 mg/L | Anti-bacterial activity (MIC), strain EFA 15-3 [8]: > 32 mg/L | Anti-bacterial activity (MIC), strain EFA 15-4 [8]: > 32 mg/L | Anti-bacterial activity (MIC), strain EFA 15-5 [8]: > 32 mg/L | Anti-bacterial activity (MIC), strain EFA 15-6 [8]: > 32 mg/L | Anti-bacterial activity (MIC), strain EFA 15-9 [8]: 4 mg/L | Anti-bacterial activity (MIC), strain MRSE 15-1 [9]: 0.5 mg/L | Anti-bacterial activity (MIC), strain MRSE 15-2 [9]: 0.5 mg/L | Anti-bacterial activity (MIC), strain MRSE 15-3 [9]: 0.5 mg/L | Anti-bacterial activity (MIC), strain MRSE 15-7 [9]: 0.5 mg/L | Anti-bacterial activity (MIC), strain ECO+ 15-1 [10]: 32 mg/L | Anti-bacterial activity (MIC), strain ECO+ 15-2 [10]: > 32 mg/L | Anti-bacterial activity (MIC), strain ECO+ 15-3 [10]: > 32 mg/L | Anti-bacterial activity (MIC), strain ECO+ 15-4 [10]: 0.5 mg/L | Anti-bacterial activity (MIC), strain ECO− 15-1 [10]: > 32 mg/L | Anti-bacterial activity (MIC), strain ECO− 15-2 [10]: > 32 mg/L | Anti-bacterial activity (MIC), strain ECO− 15-3 [10]: > 32 mg/L | Anti-bacterial activity (MIC), strain ECO− 15-4 [10]: > 32 mg/L
